Experiment [1] deals with Sclerotinia sclerotiorum (SCLESC). The experiment can be described thus: microbe, parasite or virus in culture. In kind it is cell-based. As to conditions: Sclerotinia sclerotiorum, 168 h, read-out: Observed efficacy.
For experiment [2], the system named is Phakopsora pachyrhizi. The experiment can be described thus: Green house use example 14: protective control of soybean rust on soybeans (PHAKPA F129L P2). It counts as in vivo. As to conditions: single compound, 0.5 ppm.
The test system of experiment [3] is Pyricularia oryzae (PYRIOR). The experiment can be described thus: microbe, parasite or virus in culture. As to conditions: Pyricularia oryzae, 168 h, read-out: Observed efficacy. It counts as cell-based.
For experiment [4], the system named is Alternaria solani (ALTESO). Kind of experiment: microbe, parasite or virus in culture. It counts as cell-based. As to conditions: Alternaria solani, 168 h, read-out: Observed efficacy.
Experiment [5] deals with Puccinia triticina (syn. P. recondita). Kind of experiment: Green house use example 9: curative control of brown rust on wheat (PUCCRT K4). It counts as in vivo.
Experiment [6] has as its system Pyrenophora teres (PYRNTE), Qol resistant (F129L). The experiment can be described thus: microbe, parasite or virus in culture. It counts as cell-based. As to conditions: Pyrenophora teres, 168 h, read-out: Observed efficacy.
The test system of experiment [7] is Phakopsora pachyrhizi. As to conditions: in vivo.
The test system of experiment [8] is Phakopsora pachyrhizi. Kind of experiment: Green house use example 13: curative control of soybean rust on soybeans (PHAKPA F129L K4). It counts as in vivo.
Experiment [9] has as its system Septoria tritici (SEPTTR). The experiment can be described thus: microbe, parasite or virus in culture. It counts as cell-based. As to conditions: Zymoseptoria tritici, 168 h, read-out: Observed efficacy.
The subject of experiment [10] is Blumeria graminis f. sp. tritici. As to conditions: in vivo.
The subject of experiment [11] is Cercospora sojina (CERCSO). It counts as cell-based.
The subject of experiment [12] is Blumeria graminis f. sp. tritici. The experiment can be described thus: Green house use example 11: control of powdery mildew on wheat, sprayed 2 days after inoculation (ERYSGT K2). In kind it is in vivo. As to conditions: G143A strain, single active.
The subject of experiment [13] is Monilinia sp. (MONISP). Kind of experiment: microbe, parasite or virus in culture. In kind it is cell-based. As to conditions: Monilinia, 168 h, read-out: Observed efficacy.
[14] abbreviates: Trial 1, single compound, 4 ppm.

Read-outs that look alike come from different tables or passages of the source.

Take `CO/C=C(/C(=O)OC)c1cccc(Cl)c1CO/N=C(\COC)c1ccccc1` [I.1, Methyl-(E)-2-[3-chloro-2-[[(Z)-(2-methoxy-1-phenyl-ethylidene)amino]oxymethyl]-phenyl]-3-methoxy-prop-2-enoate]: the inhibition of growth at 0.063 ppm in experiment [1] was found to be 2%; in [3], 64%; in experiment [4] it was 29%; in [6], 48%; in [9] it was 0%. In addition, the Observed efficacy in [2] worked out at 80; in experiment [5] (Trial 1, single compound, 1 ppm), 3; in experiment [5] (setting [14]), 58; in experiment [5] (Trial 2, single compound, 1 ppm), 0; in experiment [7], 61; in experiment [8] (setting [14]) it was 37. Moreover, the Observed efficacy in [8] (Trial 3, single compound, 4 ppm) came out at 71; in experiment [10], 0. In addition, the values for the inhibition of growth at 0.016 ppm in experiment [3], in [4] and in experiment [6] were 25%, 12% and 14%, respectively. Moreover, the inhibition of growth at 0.25 ppm in experiment [6] is 72%; in experiment [9], 45%.

For `CC(Cc1ccc(C(C)(C)C)cc1)CN1C[C@@H](C)O[C@@H](C)C1` (stereo partly shown) [fenpropimorph, reference compound], the inhibition of growth at 1 ppm was determined as 39% in experiment [1], 61% in [4], 33% in experiment [6] and 44% in experiment [9]. For the same molecule, the inhibition of growth at 4 ppm in [1] amounted to 65%. The Observed efficacy in experiment [11] worked out at 3%; in [12] (16 ppm), 32; in [12] (63 ppm), 35; in experiment [7], 0; in [8] (setting [14]) it was 8; in experiment [8] (Trial 1, single compound, 12 ppm) it was 13. The Observed efficacy in experiment [8] (Trial 2, single compound, 4 ppm) is given as 6; in experiment [8] (Trial 2, single compound, 16 ppm), 11; in experiment [10] it was 16. Also, the inhibition of growth at 0.016 ppm was found to be 0% in experiment [3] and 2% in experiment [13]. The inhibition of growth at 0.25 ppm was 18% in experiment [4] and 0% in [9]. Moreover, the inhibition of growth at 0.063 ppm in experiment [9] is 0%.

(Values after patent publication EP4640052A1 (BASF SE, priority 2024, dated 2025).)
